Numbers after ± are expanded uncertainties.
Assay: activity coefficient (dimensionless); of the first substance listed, at infinite dilution; xn = mol fraction of the nth substance listed
Details: Liquid, Chromatography, x1 = 0

Cc1ccc(C)o1 [2,5-dimethylfuran] + CCCC[n+]1ccn(C)c1.O=S(=O)([N-]S(=O)(=O)C(F)(F)F)C(F)(F)F
activity coefficient (313 K): 1.83 ± 0.16
activity coefficient (323 K): 1.85 ± 0.16
activity coefficient (333 K): 1.86 ± 0.16
activity coefficient (343 K): 1.88 ± 0.17
activity coefficient (353 K): 1.88 ± 0.17

Cc1ccc(C)o1 [2,5-dimethylfuran] + CCCCn1cc[n+](C)c1.[Cl-]
activity coefficient (313 K): 9.51 ± 0.87
activity coefficient (323 K): 9.6 ± 0.88
activity coefficient (333 K): 9.61 ± 0.88
activity coefficient (343 K): 9.64 ± 0.89
activity coefficient (353 K): 9.76 ± 0.9

CCc1ccco1 [2-ethylfuran] + CCCC[n+]1ccn(C)c1.O=S(=O)([N-]S(=O)(=O)C(F)(F)F)C(F)(F)F
activity coefficient (313 K): 1.47 ± 0.13
activity coefficient (323 K): 1.49 ± 0.13
activity coefficient (333 K): 1.51 ± 0.13
activity coefficient (343 K): 1.52 ± 0.13
activity coefficient (353 K): 1.54 ± 0.13

CCc1ccco1 [2-ethylfuran] + CCCCn1cc[n+](C)c1.[Cl-]
activity coefficient (313 K): 5.85 ± 0.54
activity coefficient (323 K): 6 ± 0.55
activity coefficient (333 K): 6.12 ± 0.56
activity coefficient (343 K): 6.23 ± 0.57
activity coefficient (353 K): 6.41 ± 0.59

Cc1ccco1 [2-methylfuran] + CCCC[n+]1ccn(C)c1.O=S(=O)([N-]S(=O)(=O)C(F)(F)F)C(F)(F)F
activity coefficient (313 K): 1.1 ± 0.09
activity coefficient (323 K): 1.12 ± 0.1
activity coefficient (333 K): 1.15 ± 0.1
activity coefficient (343 K): 1.17 ± 0.1
activity coefficient (353 K): 1.18 ± 0.1

Cc1ccco1 [2-methylfuran] + CCCCn1cc[n+](C)c1.[Cl-]
activity coefficient (313 K): 3.61 ± 0.33
activity coefficient (323 K): 3.76 ± 0.35
activity coefficient (333 K): 3.84 ± 0.35
activity coefficient (343 K): 3.96 ± 0.36
activity coefficient (353 K): 4.08 ± 0.37

c1ccccc1 [benzene] + CCCC[n+]1ccn(C)c1.O=S(=O)([N-]S(=O)(=O)C(F)(F)F)C(F)(F)F
activity coefficient (313 K): 0.938 ± 0.08
activity coefficient (323 K): 0.957 ± 0.081
activity coefficient (333 K): 0.975 ± 0.083
activity coefficient (343 K): 0.99 ± 0.084
activity coefficient (353 K): 1.01 ± 0.09

c1ccccc1 [benzene] + CCCCn1cc[n+](C)c1.[Cl-]
activity coefficient (313 K): 4.09 ± 0.38
activity coefficient (323 K): 4.14 ± 0.38
activity coefficient (333 K): 4.15 ± 0.38
activity coefficient (343 K): 4.15 ± 0.38
activity coefficient (353 K): 4.12 ± 0.38

Clc1ccccc1 [chlorobenzene] + CCCC[n+]1ccn(C)c1.O=S(=O)([N-]S(=O)(=O)C(F)(F)F)C(F)(F)F
activity coefficient (313 K): 1.5 ± 0.13
activity coefficient (323 K): 1.52 ± 0.13
activity coefficient (333 K): 1.53 ± 0.13
activity coefficient (343 K): 1.54 ± 0.13
activity coefficient (353 K): 1.54 ± 0.13

Clc1ccccc1 [chlorobenzene] + CCCCn1cc[n+](C)c1.[Cl-]
activity coefficient (313 K): 3.41 ± 0.31
activity coefficient (323 K): 3.58 ± 0.33
activity coefficient (333 K): 3.71 ± 0.34
activity coefficient (343 K): 3.82 ± 0.35
activity coefficient (353 K): 3.96 ± 0.36

CCO [ethanol] + CCCC[n+]1ccn(C)c1.O=S(=O)([N-]S(=O)(=O)C(F)(F)F)C(F)(F)F
activity coefficient (313 K): 1.6 ± 0.14
activity coefficient (323 K): 1.48 ± 0.13
activity coefficient (333 K): 1.37 ± 0.12
activity coefficient (343 K): 1.28 ± 0.11
activity coefficient (353 K): 1.2 ± 0.1

CCO [ethanol] + CCCCn1cc[n+](C)c1.[Cl-]
activity coefficient (323 K): 0.208 ± 0.032
activity coefficient (333 K): 0.213 ± 0.032
activity coefficient (343 K): 0.22 ± 0.032
activity coefficient (353 K): 0.229 ± 0.033

CCc1ccccc1 [ethylbenzene] + CCCC[n+]1ccn(C)c1.O=S(=O)([N-]S(=O)(=O)C(F)(F)F)C(F)(F)F
activity coefficient (313 K): 1.98 ± 0.18
activity coefficient (323 K): 2.01 ± 0.18
activity coefficient (333 K): 2.01 ± 0.18
activity coefficient (343 K): 2.05 ± 0.18
activity coefficient (353 K): 2.07 ± 0.18

CCc1ccccc1 [ethylbenzene] + CCCCn1cc[n+](C)c1.[Cl-]
activity coefficient (313 K): 12.5 ± 1.2
activity coefficient (323 K): 12.5 ± 1.2
activity coefficient (333 K): 12.4 ± 1.1
activity coefficient (343 K): 12.4 ± 1.1
activity coefficient (353 K): 12.4 ± 1.1

c1ccoc1 [furan] + CCCC[n+]1ccn(C)c1.O=S(=O)([N-]S(=O)(=O)C(F)(F)F)C(F)(F)F
activity coefficient (313 K): 0.678 ± 0.06
activity coefficient (323 K): 0.695 ± 0.061
activity coefficient (333 K): 0.711 ± 0.063
activity coefficient (343 K): 0.727 ± 0.064
activity coefficient (353 K): 0.739 ± 0.065

c1ccoc1 [furan] + CCCCn1cc[n+](C)c1.[Cl-]
activity coefficient (313 K): 1.41 ± 0.13
activity coefficient (323 K): 1.48 ± 0.13
activity coefficient (333 K): 1.56 ± 0.14
activity coefficient (343 K): 1.66 ± 0.15
activity coefficient (353 K): 1.75 ± 0.16

CO [methanol] + CCCC[n+]1ccn(C)c1.O=S(=O)([N-]S(=O)(=O)C(F)(F)F)C(F)(F)F
activity coefficient (313 K): 1.26 ± 0.11
activity coefficient (323 K): 1.21 ± 0.1
activity coefficient (333 K): 1.09 ± 0.09
activity coefficient (343 K): 1.06 ± 0.09
activity coefficient (353 K): 1.03 ± 0.09

CO [methanol] + CCCCn1cc[n+](C)c1.[Cl-]
activity coefficient (323 K): 0.1 ± 0.03
activity coefficient (333 K): 0.104 ± 0.03
activity coefficient (343 K): 0.109 ± 0.03
activity coefficient (353 K): 0.115 ± 0.03

CCCO [propan-1-ol] + CCCC[n+]1ccn(C)c1.O=S(=O)([N-]S(=O)(=O)C(F)(F)F)C(F)(F)F
activity coefficient (313 K): 1.94 ± 0.17
activity coefficient (323 K): 1.77 ± 0.16
activity coefficient (333 K): 1.63 ± 0.14
activity coefficient (343 K): 1.51 ± 0.13
activity coefficient (353 K): 1.4 ± 0.12

CCCO [propan-1-ol] + CCCCn1cc[n+](C)c1.[Cl-]
activity coefficient (333 K): 0.286 ± 0.035
activity coefficient (343 K): 0.292 ± 0.036
activity coefficient (353 K): 0.301 ± 0.036

Cc1ccccc1 [toluene] + CCCC[n+]1ccn(C)c1.O=S(=O)([N-]S(=O)(=O)C(F)(F)F)C(F)(F)F
activity coefficient (313 K): 1.31 ± 0.11
activity coefficient (323 K): 1.34 ± 0.12
activity coefficient (333 K): 1.37 ± 0.12
activity coefficient (343 K): 1.39 ± 0.12
activity coefficient (353 K): 1.42 ± 0.12

Cc1ccccc1 [toluene] + CCCCn1cc[n+](C)c1.[Cl-]
activity coefficient (313 K): 7.19 ± 0.66
activity coefficient (323 K): 7.24 ± 0.67
activity coefficient (333 K): 7.23 ± 0.66
activity coefficient (343 K): 7.3 ± 0.67
activity coefficient (353 K): 7.38 ± 0.68
